Measured values taken from patent US5198451A, “Heterocyclic carboxylic acids” (Novo Nordisk A/S, priority 1989, dated 1993).
Counter-ions that a name gives are not always drawn.

Tested on: [^3 H]-GABA uptake
Test: Inhibition of [^3 H]-GABA uptake in vitro (Male Wistar rat cortical tissue homogenate)
Format: biochemical
Conditions: tris HCl buffer pH 7.5, 60 min at 30° C.
Procedure: Values for in vitro inhibition of [^3 H]-GABA uptake for these compounds were assessed essentially by the method of Fjalland (Acta Pharmacol.Toxicol. 42 (1978) 73-76). Male Wistar rat cortical tissue was gently homogenized by hand using a glass/PTFE homogenizer in 10 volumes of 0.32 M sucrose. Incubation was performed in a 40 mM tris HCl buffer (pH 7.5 at 30° C.) containing […], […], 4 mM MgSO4, 2.3 mM CaCl2 and 10 mM glucose, for 60 min. at 30° C.) Values for inhibition of GABA uptake for some representative compounds are recorded in Table I.

IC50 [nM] | Structure (SMILES)
43 | O=C(O)[C@@H]1CCCN(CCOCCC(c2ccccc2)c2cccc(C(F)(F)F)c2)C1 (stereo partly drawn) [Example 18, (R)-N-(2-(3-Phenyl-3-(3-(trifluoromethyl)phenyl)-1-propyloxy)ethyl)-3-piperidinecarboxylic acid hydrochloride]
49 | O=C(O)C1=CCCN(CCOCCC(c2ccccc2)c2ccccc2)C1 [Example 16, N-(2-(3,3-Diphenyl-1-propyloxy)ethyl)-1,2,5,6-tetrahydro-3-pyridinecarboxylic acid hydrochloride]
51 | O=C(O)[C@@H]1CCCN(CCOCCC(c2ccccc2)c2ccccc2)C1 [Example 14, (R)-N-(2-(3,3-Diphenyl-1-propyloxy)ethyl)-3-piperidinecarboxylic acid hydrochloride]
222 | O=C(O)[C@@H]1CCCN(CCCCCCCN(c2ccccc2)c2ccccc2)C1 [Example 8, (R)-N-(7-(Diphenylamino)-1-heptyl)-3-piperidinecarboxylic acid hydrochloride]
108 | O=C(O)[C@@H]1CCCN(CCOCCN(c2ccccc2)c2ccccc2)C1 [Example 2, (R)-N-(2-(2-(Diphenylamino)ethoxy)ethyl)-3-piperidinecarboxylic acid hydrochloride]
670 | O=C(O)[C@@H]1CCCN(CCCCCCN(c2ccccc2)c2ccccc2)C1 [Example 4, (R)-N-(6-(Diphenylamino)-1-hexyl)-3-piperidinecarboxylic acid hydrochloride]

Tested on: GABA uptake
Test: not given
Conditions: Yunger, L. M. et al., J. Pharm. Exp. Therap. 228 (1984) 109; cited from earlier work

Structure (SMILES) | inhibition of GABA uptake, oral activity
O=C(O)C1CCCN(CCC=C(c2ccccc2)c2cccs2)C1 (stereo not drawn) [SK&F 100604J, N-(4-phenyl-4-(2-thienyl)-3-buten-1-yl)nipecotic acid] | orally active inhibitors of GABA uptake
O=C(O)CC1CCN(CCC=C(c2ccccc2)c2ccccc2)C1 (stereo not drawn) [SK&F 100561, N-(4,4-diphenyl-3-buten-1-yl)homo-β-proline] | orally active inhibitors of GABA uptake
O=C(O)C1CCCN(CCC=C(c2ccccc2)c2ccccc2)C1 (stereo not drawn) [SK&F 89976A, N-(4,4-diphenyl-3-buten-1-yl)nipecotic acid] | orally active inhibitors of GABA uptake
O=C(O)C1=CCCN(CCC=C(c2ccccc2)c2ccccc2)C1 [SK&F 100330A, N-(4,4-diphenyl-3-buten-1-yl)guvacine] | orally active inhibitors of GABA uptake

Same assay, conditions: background art; cited from earlier work

Structure (SMILES) | inhibitor of GABA uptake from the synaptic cleft into presynaptic nerve terminals and glial cells
O=C(O)C1CCCNC1 (stereo not drawn) [nipecotic acid, piperidine-3-carboxylic acid] | well-known and potent inhibitor of GABA uptake

Tested on: not given
Test: not given
Conditions: background art; cited from earlier work

Structure (SMILES) | ability to cross the blood-brain barrier
O=C(O)C1CCCNC1 (stereo not drawn) [nipecotic acid, piperidine-3-carboxylic acid] | unable to cross the blood-brain barrier
